The values below come from ChEMBL document CHEMBL3886166, “Heterocyclic compounds” (2015).

The first test deals with T1, Transient receptor potential cation channel subfamily V member 1 (Homo sapiens, UniProt Q8NER1). The test can be described thus: pH-Based Assay: Two days prior to performing this assay, cells are seeded on poly-D-lysine-coated 96-well clear-bottom black plates (commercially available from Becton-Dickinson) at 75,000 cells/well in growth media containing 5 uM PonA (commercially available from Invitrogen) to induce expression of TRPV1. On the day of the assay, the plates are washed with 0.2 mL 1x Hank's Balanced Salt Solution (commercially available from Life Technologies) containing 1.6 mM CaCl2 and 20 mM HEPES, pH 7.4 (wash buffer), and loaded using 0.1 mL of wash buffer containing Fluo-4 (3 uM final concentration, commercially available from Molecular Probes). After 1 h, the cells are washed twice with 0.2 mL wash buffer and resuspended in 0.05 mL 1x Hank's Balanced Salt Solution (commercially available from Life Technologies) containing 3.5 mM CaCl2 and 10 mM Citrate, pH 7.4 (assay buffer). Plates are then transferred to a FLIPR for assay.
T1 sequence (Q8NER1 whole entry): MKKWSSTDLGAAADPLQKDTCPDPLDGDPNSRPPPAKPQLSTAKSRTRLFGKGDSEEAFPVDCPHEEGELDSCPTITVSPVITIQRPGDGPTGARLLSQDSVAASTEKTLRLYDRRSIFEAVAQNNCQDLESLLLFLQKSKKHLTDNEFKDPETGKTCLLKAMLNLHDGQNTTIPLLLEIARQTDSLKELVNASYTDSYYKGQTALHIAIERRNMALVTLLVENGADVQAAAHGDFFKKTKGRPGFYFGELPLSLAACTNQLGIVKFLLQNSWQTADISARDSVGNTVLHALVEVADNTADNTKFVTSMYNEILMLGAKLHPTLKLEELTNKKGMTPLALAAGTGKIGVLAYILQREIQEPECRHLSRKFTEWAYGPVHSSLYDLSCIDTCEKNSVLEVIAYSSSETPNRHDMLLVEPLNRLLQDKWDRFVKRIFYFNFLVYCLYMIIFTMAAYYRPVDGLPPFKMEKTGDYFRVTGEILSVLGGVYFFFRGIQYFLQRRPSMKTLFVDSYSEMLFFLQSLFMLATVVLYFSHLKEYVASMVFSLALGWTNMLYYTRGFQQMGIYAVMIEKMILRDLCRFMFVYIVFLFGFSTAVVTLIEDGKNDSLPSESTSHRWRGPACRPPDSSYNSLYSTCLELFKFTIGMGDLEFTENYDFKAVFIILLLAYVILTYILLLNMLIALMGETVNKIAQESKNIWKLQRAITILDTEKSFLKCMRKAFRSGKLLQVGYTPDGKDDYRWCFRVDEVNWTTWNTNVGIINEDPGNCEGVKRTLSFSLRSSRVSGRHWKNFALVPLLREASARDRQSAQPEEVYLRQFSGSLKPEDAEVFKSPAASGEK
In general, IC50 refers to the concentration that gives 50% inhibition. Take `Cc1cc(NC(=O)N2CC=C(c3ncc(-c4nnc(CCO)o4)cc3Cl)CC2)ccc1OC(F)(F)F`: the IC50 was less than 100 nM.
Same read-out and setting: to `O=C(Nc1ccc(C(F)(F)F)c(Cl)c1)N1CCC(F)(c2ncc(-c3nc(CO)no3)cc2Cl)CC1` belongs less than 100 nM; to `Cc1noc(-c2cnc(C3=CCN(C(=O)Nc4ccc(C(F)(F)F)cc4)CC3)c(Cl)c2)n1`, less than 100 nM; to `O=C(Nc1ccc(C(F)(F)F)cn1)N1CCC(F)(c2ncc(-c3noc(CO)n3)cc2Cl)CC1`, less than 100 nM.
Still for that read-out and setting: in the case of `Cc1cc(NC(=O)N2CCC(F)(c3ncc(-c4nc(CO)no4)cc3Cl)CC2)ccc1C(F)(F)F` it was less than 100 nM; in that of `O=C(Nc1ccc(C(F)(F)F)c(Cl)c1)N1CC=C(c2ncc(-c3ocnc3CO)cc2Cl)CC1`, less than 100 nM; in that of `Cc1cc(NC(=O)N2CCN(c3ncc(-c4nc(CO)no4)cc3Cl)CC2)ccc1C(F)(F)F`, less than 100 nM.
The same measure, in the same setting: in the case of `Cc1cc(NC(=O)N2CC=C(c3ncc(-c4nnc(CCO)o4)cc3Cl)CC2)ccc1C(F)(F)F` it was less than 100 nM.
Regarding `O=C(Nc1ccc(C(F)(F)F)cn1)N1CC=C(c2ncc(-c3cc(CO)on3)cc2Cl)CC1`, the IC50 is less than 100 nM.
Same read-out and setting: in the case of `Cc1cc(NC(=O)N2CC=C(c3ncc(-c4nc(CO)no4)cc3Cl)CC2)ccc1C(F)(F)F` it was less than 100 nM.
On the same count and under the same terms, to `O=C(Nc1ccc(C(F)(F)F)c(Cl)c1)N1CCN(c2ncc(-c3nnc(CO)o3)cc2Cl)CC1` belongs less than 100 nM; to `O=C(Nc1ccc(C(F)(F)F)cn1)N1CC=C(c2ccc(-c3nnc(CO)o3)cc2Cl)CC1`, less than 100 nM; to `O=C(Nc1ccc(C(F)(F)F)cn1)N1CC=C(c2ncc(-c3cnc(CO)o3)cc2Cl)CC1`, less than 100 nM.
Still for that read-out and setting: in the case of `O=C(Nc1ccc(C(F)(F)F)cn1)N1CCN(c2ncc(-c3nc(CO)no3)cc2Cl)CC1` it was less than 100 nM.
For `O=C(Nc1ccc(C(F)(F)F)c(Cl)c1)N1CC=C(c2ncc(-c3cc(CO)on3)cc2Cl)CC1`, the IC50 was less than 100 nM.
With `Cc1cc(NC(=O)N2CCN(c3ncc(-c4nnc(CO)o4)cc3Cl)CC2)ccc1C(F)(F)F`, the IC50 was less than 100 nM.
Still for that read-out and setting: in the case of `Cc1nnc(-c2cnc(C3=CCN(C(=O)Nc4ccc(C(F)(F)F)cn4)CC3)c(Cl)c2)o1` it was less than 100 nM; in that of `Cc1noc(-c2cnc(C3=CCN(C(=O)Nc4ccc(OC(F)(F)F)cc4)CC3)c(Cl)c2)n1`, less than 100 nM; in that of `O=C(Nc1ccc(C(F)(F)F)c(Cl)c1)N1CCC(F)(c2ncc(-c3noc(CO)n3)cc2Cl)CC1`, less than 100 nM.

A further test addresses T1, Transient receptor potential cation channel subfamily V member 1. The test can be described thus: Capsaicin-Based Assay: Two days prior to performing this assay, cells are seeded in poly-D-lysine-coated 96-well clear-bottom black plates (50,000 cells/well) in growth media containing 5 uM PonA (commercially available from Invitrogen) to induce expression of TRPV1. On the day of the assay, the plates are washed with 0.2 mL 1x Hank's Balanced Salt Solution (commercially available from Life Technologies) containing 1 mM CaCl2 and 20 mM HEPES, pH 7.4, and cells are loaded using 0.1 mL of wash buffer containing Fluo-4 (3 uM final). After one hour, the cells are washed twice with 0.2 mL of wash buffer and resuspended in 0.1 mL of wash buffer. The plates are transferred to a FLIPR for assay. 50 uL of test compound diluted with assay buffer (1x Hank's Balanced Salt Solution containing 1 mM CaCl2 and 20 mM HEPES, pH 7.4) are added to the cell plates and incubated for 2 min. The final concentration of the compound is adjusted to range from about 50 picoM to about 3 uM.
On to `O=C(Nc1ccc(C(F)(F)F)cn1)N1CC=C(c2ncc(-c3noc(CO)n3)cc2Cl)CC1`, for which the IC50 was less than 100 nM.
As to `O=C(Nc1ccc(C(F)(F)F)c(Cl)c1)N1CC=C(c2ncc(-c3nnc(CO)o3)cc2Cl)CC1`, the IC50 is less than 100 nM.
The same measure, in the same setting: to `O=C(C#Cc1ccc(-c2nnc(CO)o2)cc1Cl)Nc1ccc(C(F)(F)F)cc1` belongs less than 100 nM; to `O=C(Nc1ccc(C(F)(F)F)cc1)N1CC=C(c2ncc(-c3nnc(CO)o3)cc2Cl)CC1`, less than 100 nM; to `O=C(Nc1ccc(C(F)(F)F)cn1)N1CC=C(c2ncc(-c3nc(CO)no3)cc2F)CC1`, less than 100 nM.
The same measure, in the same setting: in the case of `Cc1cc(NC(=O)N2CC=C(c3ncc(-c4nc(CO)no4)cc3F)CC2)ccc1C(F)(F)F` it was less than 100 nM; in that of `O=C(Nc1ccc(C(F)(F)F)cn1)N1CC=C(c2ncc(-c3nc(CO)no3)cc2Cl)CC1`, less than 100 nM.
On the same count and under the same terms, in the case of `Cc1nnc(-c2cnc(C3=CCN(C(=O)Nc4ccc(OC(F)(F)F)cc4)CC3)c(Cl)c2)o1` it was less than 100 nM; in that of `O=C(Nc1ccc(C(F)(F)F)cn1)N1CCN(c2ncc(-c3nnc(CO)o3)cc2Cl)CC1`, less than 100 nM.
For the compound `Cc1cc(NC(=O)N2CCC(F)(c3ncc(-c4ocnc4CO)cc3Cl)CC2)ccc1C(F)(F)F`, the IC50 is less than 100 nM.
On the same count and under the same terms, in the case of `O=C(Nc1ccc(C(F)(F)F)cn1)N1CC=C(c2ncc(-c3nnc(CO)o3)cc2Cl)CC1` it was less than 100 nM.
Same read-out and setting: to `O=C(C#Cc1ccc(-c2nnc(CO)o2)cc1Cl)Nc1ccc(C(F)(F)F)c(Cl)c1` belongs less than 100 nM.
On the same count and under the same terms, in the case of `O=C(Nc1ccc(C(F)(F)F)c(Cl)c1)N1CC=C(c2ncc(-c3noc(CO)n3)cc2Cl)CC1` it was less than 100 nM; in that of `Cc1nnc(-c2cnc(C3=CCN(C(=O)Nc4ccc(C(F)(F)F)cc4)CC3)c(Cl)c2)o1`, less than 100 nM.
